# Data reported in US20020159981A1, “Methods of controlling proliferation and differentiation of stem and progenitor cells” (Gamida-Cell Ltd., priority 1999, published 2002).
# Key:
# [1] = system: Cord blood-derived CD34 cells; assay: Long-term liquid culture of CD34 cells: proliferation, CFUc, differentiation status; format: cell-based, human
# Description: Culture procedures: For the expansion of progenitor cells, CD34^+ enriched fractions or unseparated mononuclear cells were seeded at about 1-3×10^4 cells/ml in either alpha minimal essential medium containing 10% preselected fetal calf serum (FCS) (both from GIBCO, Grand Island, N.Y.), or serum-free medium (Progenitor-34 medium, Life Technologies, Grand Island, N.Y.). The media were supplemented with a mixture of growth factors and transition metal chelators. The cultures were incubated at 37° C. in an atmosphere of 5% CO2 in air with extra humidity. Half of the medium was changed weekly with fresh medium containing all the supplements.
# Cloning potential evaluations: The cloning potential of cells developed in the liquid culture was assayed, at different intervals, in semi-solid medium. The cells were washed and seeded in 35 mm dishes in methylcellulose containing alpha medium supplemented with recombinant growth factors (SCF, G-CSF, GM-CSF and EPO). Following 2 weeks incubation, the cultures were scored with an inverted microscope. Colonies were classified as blast, mixed, erythroid, myeloid, and megakaryocytic, according to their cellular composition.
# Morphological assessment: In order to characterize the resulting culture populations, aliquots of cells were deposited on a glass slide (cytocentrifuge, Shandon, Runcorn, UK), fixed and stained in May-Grunwald Giemsa. Other aliquots were stained by benzidine for intracellular hemoglobin.
# TEPA effects on proliferation and clonability of long-term CD34^+ cultures: Long-term cultures were maintained for 3-5 weeks by weekly demi-depopulation (one half of the culture volume was removed and replaced by fresh medium and cytokines).
# CD34^+ cells derived from human neonatal cord blood were purified by immunomagnetic method and then cultured in liquid medium supplemented with cytokines either with or without transition metal chelators. At weekly intervals, the cultures were demi-depopulated by removing half of the culture content (supernatant and cells) and replacing it with fresh medium, cytokines and the chelators. At the indicated weeks the cellular content of the cultures were quantified for total cells (by a manual microscopic/hemocytometric method), for CD34^+ cells (by immuno-flow cytometry) and for clonogenic cells (by cloning the cells in cytokine-supplemented semi-solid medium). The cultures were initiated with 1×10^4 cells, 50-80% of which were CD34^+ and 25-50% of which were CFUc. The results presented in FIGS. 11 to 24 were calculated per 1×10^4 initiating cells (the numbers were multiplied by the dilution factors).
# Cord blood-derived cells = assay: Preservation of stem cells: storage and separation with TEPA, then long-term culture; format: cell-based; settings: cells stored 24 hours at 4° C. and separated with 10 μM TEPA; without TEPA 5 weeks
# Description: Cord blood-derived cells were collected and stored (unseparated) for 24 hours, at 4° C., either in the presence or absence of 10 μM TEPA. CD34^+ cells were then separated using either 10 μM TEPA-PBS buffer or TEPA free PBS buffer, respectively. Then, cells were grown in long-term cultures in the presence of 10 μM TEPA.
# embryonal stem cells = assay: Embryonal stem cell culture: differentiation and proliferation; format: cell-based
# Description: Thus, embryonal stem cells were cultured for 3-4 days essentially as described in (66), in the presence of LIF (20-100 ng/ml) or TEPA (10-20 μM) and their differentiation compared to non-treated control cells.
# Hepatocytes = assay: Ex-vivo expansion of hepatocytes; format: cell-based, BALB/c mice; settings: 15 μg/ml TEPA, five weeks (FIGS. 27a-d)
# Description: Hepatocytes: Livers were dissected from anesthetized BALB/c mice with sterile tools and immersed into F12 culture medium (Biological Industries, Kibbutz Bet Ha'Emek, Israel). The livers were washed three times with 3% BSA/PBS buffer and minced into small pieces with seizures. Following three washes with 3% BSA/PBS the liver tissue pieces were incubated for 30 minutes with 0.05% collagenase at 37° C. with continues shaking under 5% CO2 atmosphere. The digested liver tissue pieces were than mashed by pressing through a fine mesh strainer. After three washes with 3% BSA/PBS the liver cells were seeded into F12 culture medium enriched with: 15 mM HEPES buffer, […], 10 mM sodium bicarbonate, 0.5 u/ml insulin, 7.5 ng/ml hydrocortisone and with or without 15 μg/ml of TEPA and incubated at 37° C. in a 5% CO2 atmosphere. After overnight incubation the medium was removed and the cells were supplemented with fresh enriched F12 medium as described above with or without 15 μg/ml of TEPA. Hepatocytes were incubated in 35 mm dishes for several weeks with enriched F12 culture medium with or without 15 μg/ml TEPA at 37° C. under 5% CO2 atmosphere. Cell culture medium was replaced every week with a fresh medium.
# NOD/SCID mice = assay: Engraftment of SCID mice by ex-vivo expanded human hematopoietic cells; format: in vivo; settings: for Engraftment Colonies: 2 weeks ex-vivo, TEPA + Cytokines
# Description: Engraftment of SCID mice by ex-vivo expanded human hematopoietic cells: Cord blood purified CD34^+ cells either fresh or following 2 or 4 weeks of ex-vivo culture (plus or minus TEPA) were injected into NOD/SCID mice essentially as described in (56). After 4 weeks, the mice were sacrificed and their femora and tibias were excised and the bone marrow flushed with a syringe fitted with a 25 gauge needle. A single cell suspension was prepared, the cells were washed and an aliquot counted with Trypan blue. In order to quantitate engrafted cells of human origin, cells were stained with FITC-conjugated anti CD45 antibodies and PE-conjugated either anti CD34, CD19 or CD33 antibodies. Anti CD45 antibodies recognize human, but not mouse, cells, and thus, indicates the human origin of the cells. The proliferation and differentiation potential of the engrafted cells was assayed by cloning bone marrow cells in semi-solid medium under conditions that allow specifically growth of human derived colonies essentially as described in (56).
smiles,measurement,setting,value
"NCCNCCNCCNCCN [TEPA, tetraethylenepentamine]",activity on differentiation of CD34^+ cells,[1],inhibit differentiation
same,clonability in long-term cultures,"[1]; 3-5 weeks, early or early and late cytokines, compared to cytokines only (FIGS. 3, 4)",higher clonability
same,differentiation stimulatory effect of G-CSF and GM-CSF,"[1]; G-CSF and GM-CSF 10 ng/ml each, CFUc frequency (FIG. 15)",blocked
same,CFUc in culture upon termination,"[1]; after 6 weeks, started with 2.5×10^3 CFUc, TEPA 10 μM",300×10^3 CFUc
same,time cultures could be maintained,"[1]; early-acting cytokines, no stromal cells, TEPA 10 μM (FIG. 11)",> 6 weeks
same,effectiveness among polyamine chelating agents,[1]; long term cultures (FIGS. 21a-b),more effective than the short-chain polyamines
same,cell proliferation and generation of CFUc in long-term cultures,"[1]; long-term cultures (FIGS. 21, 22)",support continuous cell proliferation and long-term generation of CFUc and to delay cell differentiation
same,concentrations with optimal activity,"[1]; polyamine chelating agents, weeks 3, 4, 6, 7 (FIGS. 21a-b)",40 µM
same,concentrations with optimal activity,"[1]; transition metal chelating agents, weeks 4, 5, 7 (FIGS. 22a-b)",10 µM
same,time cultures expanded,Cord blood-derived cells,8 weeks
same,maintaining the undifferentiative phenotype of embryonal stem cells,embryonal stem cells,can replace LIF
same,state of hepatocytes cultures,Hepatocytes,contained many dividing and undifferentiated cells
same,Engraftment Colonies,NOD/SCID mice; CB 2 10% FCS (first listed),330 per 2 × 10^5 SCID BM cells
same,Engraftment Colonies,NOD/SCID mice; CB 3 10% FCS,100 per 2 × 10^5 SCID BM cells
same,Engraftment Colonies,NOD/SCID mice; CB 6 1% FCS,350 per 2 × 10^5 SCID BM cells
same,Engraftment Colonies,NOD/SCID mice; CB 6 10% FCS,420 per 2 × 10^5 SCID BM cells
same,cord blood samples that succeeded to engraft the animals,"NOD/SCID mice; of 6 samples expanded ex-vivo, without TEPA 2 out of 6",6
